PubChem BioAssay (NCI)
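Each compound was tested at five concentrations against cells in 96-well plates for 48 hours. At the GI50, growth is halved. TGI is the concentration that stops growth completely.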

Tests used:
Assay in all cases: inhibition of tumour cell growth, NCI panel, 48 h
[1] = tested on: 786-0 renal
[2] = tested on: A498 renal
[3] = tested on: A549 NSCLC
[4] = tested on: ACHN renal
[5] = tested on: BT-549 breast
[6] = tested on: CAKI-1 renal
[7] = tested on: CCRF-CEM leukemia
[8] = tested on: COLO 205 colon
[9] = tested on: DU-145 prostate
[10] = tested on: EKVX NSCLC
[11] = tested on: HCC-2998 colon
[12] = tested on: HCT-116 colon
[13] = tested on: HCT-15 colon
[14] = tested on: HL-60(TB) leukemia
[15] = tested on: HOP-62 NSCLC
[16] = tested on: HOP-92 NSCLC
[17] = tested on: HS 578T breast
[18] = tested on: HT29 colon
[19] = tested on: IGROV1 ovarian
[20] = tested on: K-562 leukemia
[21] = tested on: KM12 colon
[22] = tested on: LOX IMVI melanoma
[23] = tested on: M14 melanoma
[24] = tested on: MALME-3M melanoma
[25] = tested on: MCF7 breast
[26] = tested on: MDA-MB-231 breast
[27] = tested on: MDA-MB-435
[28] = tested on: MOLT-4 leukemia

## COc1ccc(CNS(=O)(=O)/N=C2\NC(=O)NC2=C(Cl)Cl)cc1
[1]
  GI50: 1.88 µM
  TGI: > 100 µM
[2]
  GI50: 1.22 µM
  TGI: 5.39 µM
[3]
  GI50: 3.48 µM
  TGI: > 100 µM
[4]
  GI50: 3.59 µM
  TGI: > 100 µM
[5]
  GI50: 0.981 µM
  TGI: 12.2 µM
[6]
  GI50: 3.05 µM
  TGI: 73.3 µM
[7]
  GI50: 0.364 µM
  TGI: 16.2 µM
[8]
  GI50: 2.21 µM
  TGI: 5.1 µM
[9]
  GI50: 3.22 µM
  TGI: > 100 µM
[10]
  GI50: 4.39 µM
  TGI: > 100 µM
[11]
  GI50: 3.2 µM
  TGI: 10.4 µM
[12]
  GI50: 0.531 µM
  TGI: > 100 µM
[13]
  GI50: 3.19 µM
  TGI: 11.6 µM
[14]
  GI50: 0.756 µM
  TGI: 5.64 µM
[15]
  GI50: 0.621 µM
  TGI: > 100 µM
[16]
  GI50: 0.48 µM
  TGI: 10.4 µM
[17]
  GI50: 2.09 µM
  TGI: > 100 µM
[18]
  GI50: 1.67 µM
  TGI: > 100 µM
[19]
  GI50: 3.3 µM
  TGI: 22 µM
[20]
  GI50: 1.64 µM
  TGI: > 100 µM
[21]
  GI50: 0.327 µM
  TGI: > 100 µM
[22]
  GI50: 0.386 µM
  TGI: 10.8 µM
[23]
  GI50: 3.02 µM
  TGI: > 100 µM
[24]
  GI50: 5.62 µM
  TGI: 22.7 µM
[25]
  GI50: 0.348 µM
  TGI: > 100 µM
[26]
  GI50: 1.92 µM
  TGI: 8.31 µM
[27]
  GI50: 1.36 µM
  TGI: 4.33 µM
[28]
  GI50: 0.435 µM
  TGI: 59.2 µM
